Values of other authors, collected in patent US20060105068A1, “Dietary supplement formulations containing Hoodia gordonii” (priority 2003, published 2006).

Experiments:
[1] = United States; therapeutic range; aspirin and associated compounds
[2] = after fifteen weeks; 1200 calorie/day diet
[3] = rats

CC(=O)OC1CC[C@@]2(C)C(=CC(=O)[C@@H]3[C@@H]2CC[C@]2(C)C(=O)CC[C@@H]32)C1 (stereo partly drawn) [Formula 7-Keto, 3-acetyl-7-oxo-dehydroepiandrosterone]
body weight, body mass index (BMI), and waist and hip circumference versus placebo (8-week treatment period): statistically significant reductions
tolerability / adverse events (8-week treatment period): well tolerated and no serious adverse events were reported
effect on testosterone levels (human, in vivo): does not increase testosterone levels

CC(=O)Oc1ccccc1C(=O)O [aspirin]
people who die each year [1]: 7,600

CCN[C@@H](C)Cc1cccc(C(F)(F)F)c1 [dexfenfluramine]
weight lost [2]: 15.2+/−9.5 lbs

O=C(O[C@@H]1Cc2c(O)cc(O)cc2O[C@@H]1c1cc(O)c(O)c(O)c1)c1cc(O)c(O)c(O)c1 [epigallocatechin gallate]
loss of body weight [3]: up to 21%
decrease in appetite ([3]; after seven days of injections): 60%

NC(Cc1cc(I)c(Oc2cc(I)c(O)c(I)c2)c(I)c1)C(=O)O (stereo not drawn) [throxine]
reduction in CYP450 (cytochrome P450; when throxine is increased): 60-80%

Naringinine [Naringinines]
effect on cytochrome P450 enzymes (cytochrome P450): inhibit
